The source of these data is patent US20160015725A1, “METHODS OF CONTROLLING TUMOR BIOENERGETICS NETWORKS” (THE WISTAR INSTITUTE OF ANATOMY AND BIOLOGY, priority 2012, published 2016).

Test [1] deals with FF2508 or MRC5 normal primary human fibroblasts. The test is described as follows: ATP production in normal fibroblasts. Format: cell-based. As to the method: Intracellular ATP concentrations were measured by the luciferin—luciferase method using an ATP measuring kit (Biochain). The ATP concentration in each extract was measured with a microplate luminometer (Beckman Coulter) against standard ATP solutions used as reference. In some experiments, PC3 or LN229 cells were preincubated with sodium pyruvate for 7 h in the presence of vehicle or Gamitrinib before determination of ATP production.

Test [2] relates to LN229 cells. The test is described as follows: Extracellular lactate. In kind it is cell-based, human. To be noted: tumor cells. How it is done: Glucose concentrations in cell culture media were determined using a Glucose kit (Sigma-Aldrich). Briefly, 2×10^6 cells were seeded in 10 cm2 tissue culture dishes for 48 h, mixed with DMEM in the presence of Gamitrinib or 17-AAG (0-20 μM) for additional 4 h, and 200 μl aliquots of culture medium were incubated with 1 ml assay mixture, containing 1.5 mM NAD, 1 mM ATP, 1.0 U/ml Hexokinase, and 1.0 U/ml G6PDH. The glucose concentration under the various conditions was determined by measuring the amount of reduced NAD to NADH by G6PDH, and quantified spectrophotometrically at 340 nm wavelength. Extracellular lactate was measured by a colorometric assay kit (Abcam). Culture media from LN229 cells was replaced with DMEM containing vehicle (DMSO) or Gamitrinib (5 μM) for 5 h. Changes in lactate concentrations were measured by analysis of lactate-dependent conversion of NADP to NADPH in the presence of excess lactate dehydrogenase (LDH), and quantified by absorbance at 450 nm. All assays were performed at 25° C. under conditions of linear lactate-limited NADPH formation.

Test [3] has as its system LN229 cells. Kind of test: Oxygen consumption, fluorimetric assay. In kind it is cell-based, human. To be noted: tumor cells. How it is done:
Treated tumor cells were analyzed using a fluorescence oxygen sensitive probe-based oxygen measuring kit (Luxcel Bioscience). For these experiments, LN229 cells were plated at increasing cell density (10-60×10^4/ml) on black body, clear bottom 96-well plates. The culture medium was replaced with 150 μl of phenol free DMEM containing 10% fetal bovine serum in the presence of 17-AAG or Gamitrinib (10 μM). Cells were further incubated with an oxygen-sensing probe (10 pmol/well), and 100 μl of heavy mineral oil was added to each well to seal the samples from ambient oxygen. After a 2 h incubation at 37° C., oxygen consumption was determined by quantifying the probe fluorescence signal in each well using a plate reader (Beckman Coulter) with excitation and emission wavelengths at 370 nm and 625 nm, respectively.

For the next test, the system named is hexokinase-II (HK-II). The test is described as follows: Subcellular fractionation and Western blotting of hexokinases. In kind it is cell-based, human. To be noted: LN229, 5 h. How it is done: Mitochondrial fractions were isolated from Gamitrinib treated LN229 cells (0-20 μM for 5 h) using an ApoAlert™ cell fractionation kit (CLONTECH). Briefly, LN229 cells were mechanically disrupted by 60 strokes with a Dounce homogenizer in isolation buffer containing 1 mM DTT plus protease inhibitor cocktail. Cell debris was removed by centrifugation at 700 g for 10 min. The supernatant was further centrifuged at 10,000 g for 25 min, and supernantants or mitochondrial pellets were processed for further analysis.
For Western blotting, protein lysates were prepared from the different cell types in RIPA Buffer (150 mM NaCl, 1.0% Triton X-100, 0.5% sodium deoxycholate, 0.1% SDS, 50 mM Tris, pH 8.0) containing EDTA-free Protease Inhibitor Cocktail (Roche) and Phosphatase Inhibitor Cocktail 2 and 3 (Sigma Aldrich). Equal amounts of protein lysates were separated by SDS gel electrophoresis, transferred to PVDF membranes and incubated with primary antibodies of various specificities. Protein bands were detected by chemiluminescence.

The next test deals with hexokinase. Kind of test: Hexokinase activity in mitochondrial fractions of treated cells. In kind it is cell-based, human. The following applies: LN229 mitochondrial fractions, 5 h. As to the method:
HK activity in LN229 cells was measured as the total glucosephosphorylating activity using a standard G6PDH-coupled assay kit (BioVision). Mitochondria isolated from Gamitrinib- or 17-AAG-treated LN229 cells, or cultures transfected with various siRNAs were homogenized in cold PBS, followed by centrifugation at 1000 g for 10 min at 4° C. HK activity was determined by analysis of G6P-dependent conversion of NADP to NADPH in the presence of excess […] in the presence of 2 mM glucose, and quantification of absorbance at 450 nm. All assays were performed at 25° C. under conditions of linear HK-limited NADPH formation.

Another test concerns PC3 cells. The test is described as follows: ER stress luciferase-promoter reporter assay. The following applies: PC3, 20 h. Format: cell-based, human. As to the method: In another series of experiments, PC3 cells were transfected with control or Grp78-directed siRNA, and analyzed for cell viability after 24 h by an MTT assay. For promoter analysis, PC3 cells were plated in triplicate onto 48-well plates at 1.4×10^4 cells/well, and cotransfected with Firefly Luciferase-reporters for IRE1, ATF6, PERK or CHOP and a constitutive reporter (pTK-Renilla Luc) in a 10:1 ratio using X-tremeGENE reagent (Roche). After 24 h, cells were treated with vehicle, Gamitrinib, tunicamycin or 2-DG and analyzed after 20 h for Firefly and Renilla luciferase activity using a Dual Luciferase Reporter Assay System (Promega). Transfection of plasmid DNAs was carried out with lipofectamine 2000 (Invitrogen) according to published protocols. A PPIase-defective CypD H168Q mutant cDNA was generated by Quick-Change site-directed mutagenesis (Stratagene) using primers 5′-[…]-3′ (forward) and 5′-[…]-3′ (reverse) (mutated sequences are bolded). The inserted mutation (bolded) was confirmed by DNA sequencing, and cloned in a pcDNA3.0 expression vector (Invitrogen) for reconstitution experiments in CypD−/− MEFs.

A further test relates to tumor cells. Kind of test: Mitochondrial permeability transition. Format: cell-based, human. To be noted: non-cytotoxic concentrations. As to the method:
(a) FIG. 18a is a bar graph showing percent viability of aliquots of the human tumor cell lines PC3, LNCaP, LN229, A549, or MCF-7 incubated with the indicated increasing concentrations of Gamitrinib for 5 hr and analyzed for changes in cell viability by direct cell counting. Mean±SD (n=2). (b) FIG. 18b are two parameter histogram dot plots of human glioblastoma LN229 cells left untreated (None) or incubated with 5 μM 17-AAG or Gamitrinib (Gam) for 5 hr and analyzed for changes in mitochondrial membrane potential by JC-1 staining and multiparametric flow cytometry. The mitochondrial uncoupler carbonyl cyanide 3-chlorophenylhydrazone (CCCP) was used as a control. The percentage of cells in each quadrant is indicated. FL1, green fluorescence; FL2, red fluorescence.

Test [4] relates to TRAMP (Transgenic Adenocarcinoma of the Mouse Prostate) mice. The following applies: cited from earlier work.

For the compound `CO[C@H]1/C=C\C=C(/C)C(=O)NC2=CC(=O)C(NCCCCCC[P+](c3ccccc3)(c3ccccc3)c3ccccc3)=C(C[C@@H](C)C[C@H](OC)[C@H](O)[C@@H](C)/C=C(\C)[C@@H]1OC(N)=O)C2=O` [Gamitrinib], in test [1], the ATP production result is “did not change ATP production”. In the test on LN229 cells [2], the extracellular lactate levels entry is recorded as “reduced”. Also, the oxygen consumption entry in the test on LN229 cells [3] was “reduced”. Further, the “HK-II localization (mitochondria vs cytosol)” value in the test on hexokinase-II (HK-II) is given as “concentration-dependent release of hexokinase-II (HKII) from mitochondria”. Besides, in the test with hexokinase, the hexokinase activity result is “a decrease in hexokinase activity”. For the same compound, in the test with PC3 cells, the “minimal CHOP promoter activity” value was “transcriptionally induced”; the “transcriptional activation of response elements of IRE-1, ATF-6 and PERK” value is recorded as “comparably induced transcriptional activation”. Moreover, the mitochondrial permeability transition result in the test on tumor cells is “do not trigger mitochondrial permeability transition”. In addition, the “residual prostatic adenocarcinoma at end of experiment” value in test [4] (5 mg/kg i.p., 3 d on/2 d off) is listed as “only one animal displayed a small residual area of prostatic adenocarcinoma”. In test [4] (systemic treatment), the “Prostatic Intraepithelial Neoplasia (PIN)” value is listed as “did not affect Prostatic Intraepithelial Neoplasia (PIN)”; the “primary and metastatic prostate cancer growth” value was “inhibited primary and metastatic prostate cancer growth”.
